{"source": "ChEMBL document CHEMBL5214910", "about": "“Rational Design of Dipicolylamine-Containing Carbazole Amphiphiles Combined with Zn2+ as Potent Broad-Spectrum Antibacterial Agents with a Membrane-Disruptive Mechanism” (J Med Chem, 2021)", "key": {"[1]": {"system": "Cell membrane", "experiment": "Induction of cell membrane […] in Staphylococcus aureus ATCC 29213 assessed as increase in fluorescence intensity at 2 times to 8 times of MIC measured for 1 hrs in the presence of 12.5 ug/ml Zn2+ by DiSC3 (5) dye based assay", "format": "subcellular"}, "[2]": {"system": "Escherichia coli", "experiment": "Antibacterial activity Escherichia coli ATCC 25922 assessed as inhibition of bacterial growth incubated for 24 hrs in the presence of 0.78 ug/mL Zn2+ by Muller hinton broth based dilution assay", "format": "functional"}, "[3]": {"system": "Staphylococcus aureus", "experiment": "Antibacterial activity against Staphylococcus aureus ATCC 29213 assessed as inhibition of bacterial growth incubated for 24 hrs by Muller hinton broth based dilution assay", "format": "functional"}, "[4]": {"system": "Acinetobacter baumannii", "experiment": "Antibacterial activity against Acinetobacter baumannii R2889 assessed as inhIbition of bacterial growth incubated for 24 hrs by Muller hinton broth based dilution assay", "format": "functional"}, "[5]": {"system": "Staphylococcus aureus", "experiment": "Antibacterial activity against Staphylococcus aureus ATCC 29213 assessed as inhibition of bacterial growth incubated for 24 hrs in the presence of 25 ug/mL Zn2+ by Muller hinton broth based dilution assay", "format": "functional"}, "[6]": {"system": "Lipopolysaccharide (LPS)", "experiment": "Displacement of BODIPY-TR-cadaverin from Pseudomonas aeruginosa Lipopolysaccharide at 2 times of MIC incubated for 30 mins in the presence of 12.5 ug/ml Zn2+ by fluorescence based microplate reader analysis relative to control"}, "[7]": {"experiment": "Cytotoxicity against mouse NCTC clone 929 cells assessed as reduction in cell survival at 16 times to 32 times of MIC incubated for 24 hrs in the presence of 12.5 ug/ml of Zn2+ by CCK8 assay relative to control", "format": "toxicity, cell-based", "details": "nctc clone 929, 24 h"}, "[8]": {"system": "Cell membrane", "experiment": "Induction of outer membrane permeabilization in Escherichia coli ATCC 25922 assessed as increase in fluorescence intensity at 2 times to 8 times MIC measured for 1 hrs in the presence of 12.5 ug/ml Zn2+ by NPN uptake assay", "details": "DDE = dose-dependent effect"}, "[9]": {"system": "Staphylococcus aureus", "experiment": "Antibacterial activity against Methicillin-resistant Staphylococcus aureus N315 assessed as inhibition of bacterial growth by measuring salt resistance incubated for 24 hrs in the presence of 12.5 ug/ml Zn2+ and 100 ug/ml Ca2+ by Muller hinton broth based dilution assay", "format": "functional"}, "[10]": {"system": "Staphylococcus aureus", "experiment": "Antibacterial activity against Methicillin-resistant Staphylococcus aureus NCTC10442 assessed as inhibition of bacterial growth incubated for 24 hrs in the presence of […] ug/mL Zn2+ by Muller hinton broth based dilution assay", "format": "functional"}, "[11]": {"system": "Escherichia coli", "experiment": "Antibacterial activity against Escherichia coli ATCC 25922 assessed as inhibition of bacterial growth by measuring salt resistance incubated for 24 hrs in the presence of 12.5 ug/ml Zn2+ and 175.5 ug/ml K+ by Muller hinton broth based dilution assay", "format": "functional"}, "[12]": {"system": "Staphylococcus aureus", "experiment": "Antibacterial activity against Staphylococcus aureus ATCC 29213 assessed as log reduction in bacterial count at 8 times of MIC incubated for 30 mins in the presence of 12.5 ug/ml Zn2+ by Muller hinton agar based time kill assay", "format": "functional", "details": "0.5 h"}, "[13]": {"system": "Staphylococcus aureus", "experiment": "Antibacterial activity against Methicillin-resistant Staphylococcus aureus NCTC10442 assessed as inhibition of bacterial growth incubated for 24 hrs in the presence of 0.39 ug/mL Zn2+ by Muller hinton broth based dilution assay", "format": "functional"}, "[14]": {"experiment": "Ratio of MIC for antibacterial activity against Escherichia coli ATCC 25922 to MIC for antibacterial activity against Escherichia coli ATCC 25922 in the presence of Zn2+", "format": "functional"}, "[15]": {"system": "Escherichia coli", "experiment": "Antibacterial activity Escherichia coli ATCC 25922 assessed as inhibition of bacterial growth incubated for 24 hrs in the presence of 12.5 ug/mL Zn2+ by Muller hinton broth based dilution assay", "format": "functional"}, "[16]": {"system": "Lipopolysaccharide (LPS)", "experiment": "Displacement of BODIPY-TR-cadaverin from Pseudomonas aeruginosa Lipopolysaccharide at 1 times of MIC incubated for 30 mins in the presence of 12.5 ug/ml Zn2+ by fluorescence based microplate reader analysis relative to control"}, "[17]": {"system": "Staphylococcus aureus", "experiment": "Antibacterial activity against Staphylococcus aureus ATCC 29213 assessed as inhibition of bacterial growth incubated for 24 hrs in the presence of 50 ug/mL Zn2+ by Muller hinton broth based dilution assay", "format": "functional"}, "[18]": {"system": "Lipopolysaccharide (LPS)", "experiment": "Displacement of BODIPY-TR-cadaverin from Pseudomonas aeruginosa Lipopolysaccharide at 4 times of MIC incubated for 30 mins in the presence of 12.5 ug/ml Zn2+ by fluorescence based microplate reader analysis relative to control"}, "[19]": {"system": "Escherichia coli", "experiment": "Antibacterial activity against Escherichia coli ATCC 25922 assessed as inhibition of bacterial growth by measuring salt resistance incubated for 24 hrs in the presence of 12.5 ug/ml Zn2+ and 24.3 ug/ml Mg2+ by Muller hinton broth based dilution assay", "format": "functional"}, "[20]": {"system": "Staphylococcus aureus", "experiment": "Antibacterial activity against Methicillin-resistant Staphylococcus aureus NCTC10442 assessed as inhibition of bacterial growth incubated for 24 hrs by Muller hinton broth based dilution assay", "format": "functional"}, "[21]": {"system": "Pseudomonas aeruginosa", "experiment": "Antibacterial activity Pseudomonas aeruginosa ATCC 9027 assessed as inhibition of bacterial growth incubated for 24 hrs in the presence of 50 ug/mL Zn2+ by Muller hinton broth based dilution assay", "format": "functional"}, "[22]": {"system": "Pseudomonas aeruginosa", "experiment": "Antibacterial activity Pseudomonas aeruginosa ATCC 9027 assessed as inhibition of bacterial growth incubated for 24 hrs in the presence of 6.25 ug/mL Zn2+ by Muller hinton broth based dilution assay", "format": "functional"}, "[23]": {"system": "Pseudomonas aeruginosa", "experiment": "Antibacterial activity Pseudomonas aeruginosa ATCC 9027 assessed as inhibition of bacterial growth incubated for 24 hrs in the presence of 12.5 ug/mL Zn2+ by Muller hinton broth based dilution assay", "format": "functional"}, "[24]": {"system": "Lipopolysaccharide (LPS)", "experiment": "Displacement of BODIPY-TR-cadaverin from Pseudomonas aeruginosa Lipopolysaccharide at 2 times of MIC incubated for 30 mins by fluorescence based microplate reader analysis relative to control"}, "[25]": {"system": "Escherichia coli", "experiment": "Antibacterial activity Escherichia coli ATCC 25922 assessed as inhibition of bacterial growth incubated for 24 hrs in the presence of 25 ug/mL Zn2+ by Muller hinton broth based dilution assay", "format": "functional"}, "[26]": {"system": "Staphylococcus aureus", "experiment": "Antibacterial activity against Methicillin-resistant Staphylococcus aureus N315 assessed as inhibition of bacterial growth by measuring salt resistance incubated for 24 hrs in the presence of 12.5 ug/ml Zn2+ and 3220 ug/ml Na+ by Muller hinton broth based dilution assay", "format": "functional"}, "[27]": {"system": "Acinetobacter baumannii", "experiment": "Antibacterial activity against Acinetobacter baumannii ATCC 17978 assessed as inhibition of bacterial growth by measuring salt resistance incubated for 24 hrs in the presence of 12.5 ug/ml Zn2+ and 175.5 ug/ml K+ by Muller hinton broth based dilution assay", "format": "functional"}, "[28]": {"system": "Escherichia coli", "experiment": "Antibacterial activity against Escherichia coli ATCC 25922 assessed as inhibition of bacterial growth by measuring salt resistance incubated for 24 hrs in the presence of 12.5 ug/ml Zn2+ and 100 ug/ml Ca2+ by Muller hinton broth based dilution assay", "format": "functional"}, "[29]": {"system": "Staphylococcus aureus", "experiment": "Antibacterial activity against Methicillin-resistant Staphylococcus aureus NCTC10442 assessed as inhibition of bacterial growth incubated for 24 hrs in the presence of 0.78 ug/mL Zn2+ by Muller hinton broth based dilution assay", "format": "functional"}, "[30]": {"system": "Acinetobacter baumannii", "experiment": "Antibacterial activity against Acinetobacter baumannii ATCC 17978 assessed as inhIbition of bacterial growth incubated for 24 hrs by Muller hinton broth based dilution assay", "format": "functional"}}, "note": "Active and inactive are the calls of the source. The rule behind the calls is not given here."}
{"molecule": "CC(C)=CCn1c2ccccc2c2c(OCC(O)CN(Cc3ccccn3)Cc3ccccn3)cccc21", "note": "(stereo not given)", "values": [{"measurement": "Activity", "setting": "[1]", "result": "Active"}, {"measurement": "MIC", "setting": "[2]", "result": 6.25, "unit": "µg/mL"}, {"measurement": "MIC", "setting": "[3]", "result": 3.12, "unit": "µg/mL"}, {"measurement": "MIC", "setting": "[4]", "result": 3.12, "unit": "µg/mL"}, {"measurement": "MIC", "setting": "[5]", "result": 1.56, "unit": "µg/mL"}, {"measurement": "Activity", "setting": "[6]", "result": 39.1, "unit": "%"}, {"measurement": "Activity", "setting": "[7]", "result": 71.58, "unit": "%"}, {"measurement": "Activity", "setting": "[8]", "result": "Dde"}, {"measurement": "MIC", "setting": "[9]", "result": 3.12, "unit": "µg/mL"}, {"measurement": "MIC", "setting": "[10]", "result": 1.56, "unit": "µg/mL"}, {"measurement": "MIC", "setting": "[11]", "result": 1.56, "unit": "µg/mL"}, {"measurement": "log(activity)", "setting": "[12]", "result": 4.22}, {"measurement": "MIC", "setting": "[13]", "result": 1.56, "unit": "µg/mL"}, {"measurement": "Ratio", "setting": "[14]", "result": 2}, {"measurement": "MIC", "setting": "[15]", "result": 1.56, "unit": "µg/mL"}, {"measurement": "Activity", "setting": "[16]", "result": 20.8, "unit": "%"}, {"measurement": "MIC", "setting": "[17]", "result": 0.78, "unit": "µg/mL"}, {"measurement": "Activity", "setting": "[18]", "result": 59.5, "unit": "%"}, {"measurement": "MIC", "setting": "[19]", "result": 3.12, "unit": "µg/mL"}, {"measurement": "MIC", "setting": "[20]", "result": 1.56, "unit": "µg/mL"}, {"measurement": "MIC", "setting": "[21]", "result": 3.12, "unit": "µg/mL"}, {"measurement": "MIC", "setting": "[22]", "result": 3.12, "unit": "µg/mL"}, {"measurement": "MIC", "setting": "[23]", "result": 3.12, "unit": "µg/mL"}, {"measurement": "Activity", "setting": "[24]", "result": 0.19, "unit": "%"}, {"measurement": "MIC", "setting": "[25]", "result": 1.56, "unit": "µg/mL"}, {"measurement": "MIC", "setting": "[26]", "result": 0.78, "unit": "µg/mL"}, {"measurement": "MIC", "setting": "[27]", "result": 0.78, "unit": "µg/mL"}, {"measurement": "MIC", "setting": "[28]", "result": 6.25, "unit": "µg/mL"}, {"measurement": "MIC", "setting": "[29]", "result": 1.56, "unit": "µg/mL"}, {"measurement": "MIC", "setting": "[30]", "result": 3.12, "unit": "µg/mL"}]}
